Source: patent publication US20230303483A1, “USE OF STROBILURIN TYPE COMPOUNDS FOR COMBATING PHYTOPATHOGENIC FUNGI CONTAINING AN AMINO ACID SUBSTITUTION F129L IN THE MITOCHONDRIAL CYTOCHROME B PROTEIN CONFERRING RESISTANCE TO QO […]” (BASF SE, priority 2020, published 2023)

What was measured:
[1] = system: Phakopsora pachyrhizi (strain containing the amino acid substitution F129L in the mitochondrial cytochrome b protein); assay: Use example 1: protective control of soybean rust on soybeans (PHAKPA P2), inoculation 2 days after spraying; assay type: in vivo; details: % diseased leaf area on soybean, 16 ppm spray, inoculation 2 days after treatment, untreated controls usually >85 %
Protocol: (§1) The compound was dissolved in a mixture of acetone and/or dimethylsulfoxide and the wetting agent/emulsifier Wettol, which is based on ethoxylated alkylphenoles, in a ratio (volume) solvent-emulsifier of 99 to 1 to give a total volume of 5 ml. Subsequently, water was added to total volume of 100 ml. This stock solution was then diluted with the described solvent-emulsifier-water mixture to the final concentration given in the table below.
Use example 1. Protective control of soybean rust on soybeans caused by Phakopsora pachyrhizi (PHAKPA P2)
(§2) Leaves of potted soybean seedlings were sprayed to run-off with the previously described spray solution, containing the concentration of active ingredient or their mixture as described below. The plants were allowed to air-dry. The trial plants were cultivated for 2 days in a greenhouse chamber at 23-27° C. and a relative humidity between 60 and 80 %. Then the plants were inoculated with spores of Phakopsora pachyrhizi. The strain used contains the amino acid substitution F129L in the mitochondrial cytochrome b protein conferring resistance to Qo inhibitors. To ensure the success the artificial inoculation, the plants were transferred to a humid chamber with a relative humidity of about 95 % and 20 to 24° C. for 24 hr. The trial plants were cultivated for up to 14 days in a greenhouse chamber at 23 to 27° C. and a relative humidity between 60 and 80 %. The extent of fungal attack on the leaves was visually assessed as % diseased leaf area, the disease level of untreated controls was usually higher than 85 %.
(§3) All test results below are given for the control of phytopathogenic fungi containing the amino acid substitution F129L in the mitochondrial cytochrome b protein conferring resistance to Qo inhibitors.

[2] = system: Phakopsora pachyrhizi (strain containing the amino acid substitution F129L in the mitochondrial cytochrome b protein); assay: Use example 2: protective control of soybean rust on soybeans (PHAKPA P6), inoculation six days after spraying; assay type: in vivo; details: % diseased leaf area on soybean, 16 ppm spray, inoculation six days after treatment, untreated controls usually >85 %
Protocol: as §1
Use example 2. Protective control of soybean rust on soybeans caused by Phakopsora pachyrhizi (PHAKPA P6)
as §2, with “active ingredient as described” for “active ingredient or their mixture as described”, “cultivated for six days in” for “cultivated for 2 days in”, “% and 23 to 27°” for “% and 20 to 24°”, “23 to 27° C. for” for “20 to 24° C. for”
as §3

SMILES | PHAKPA Disease level (%) P2 at 16 ppm [1] | PHAKPA Disease level (%) P6 at 16 ppm [2]
CO/C=C(/C(=O)OC)c1cccc(C)c1CO/N=C(\C)C#Cc1ccc(F)cc1 [Example 70] | 0% | 0%
CO/N=C(/C(=O)OC)c1ccccc1CO/N=C(\C)C#Cc1cccc(Cl)c1 [Example 71] | 20% | 17%
CO/N=C(/C(=O)OC)c1cccc(C)c1CO/N=C(\C)C#Cc1cccc(Cl)c1 [Example 72] | 7% | 8%
CNC(=O)/C(=N/OC)c1ccccc1CO/N=C(\C)C#Cc1cccc(Cl)c1 [Example 73] | 1% | 0%
CO/N=C(/C(=O)OC)c1ccccc1CO/N=C(\C)C#Cc1ccccc1Cl [Example 74] | 42% | 47%
CO/N=C(/C(=O)OC)c1cccc(C)c1CO/N=C(\C)C#Cc1ccccc1Cl [Example 75] | 22% | 40%
CNC(=O)/C(=N/OC)c1ccccc1CO/N=C(\C)C#Cc1ccccc1Cl [Example 76] | 3% | 4%
CNC(=O)/C(=N/OC)c1cccc(C)c1CO/N=C(\C)C#Cc1cccc(Cl)c1 [Example 77] | 0% | 0%
CNC(=O)/C(=N/OC)c1cccc(C)c1CO/N=C(\C)C#Cc1ccccc1Cl [Example 78] | 0% | 0%
CNC(=O)/C(=N/OC)c1ccccc1CO/N=C(\C)C#Cc1ccc(Cl)cc1F [Example 83] | 17% | 22%
CNC(=O)/C(=N/OC)c1ccccc1CO/N=C(\C)C#Cc1ccc2c(c1)OC(F)(F)O2 [Example 84] | 77% | 67%
CO/N=C(/C(=O)OC)c1ccccc1CO/N=C(\C)C#Cc1ccc2c(c1)OC(F)(F)O2 [Example 85] | 100% | 83%
CNC(=O)/C(=N/OC)c1ccccc1CO/N=C(\C)C#Cc1ccc(Cl)cc1C1CC1 [Example 86] | 5% | 18%
CNC(=O)/C(=N/OC)c1ccccc1CO/N=C(\C)C#Cc1ccc(OC(C)C)cc1 [Example 88] | 77% | 60%
CO/N=C(/C(=O)OC)c1ccccc1CO/N=C(\C)C#Cc1ccc(Cl)cc1F [Example 90] | 30% | 57%
CO/N=C(/C(=O)OC)c1ccccc1CO/N=C(\C)C#Cc1ccc(Cl)cc1C1CC1 [Example 91] | 53% | 43%
CNC(=O)/C(=N/OC)c1ccccc1CO/N=C(\C)C#Cc1ccc(C2CC2)cc1 [Example 92] | 60% | 57%
CO/N=C(/C(=O)OC)c1ccccc1CO/N=C(\C)C#Cc1c(Cl)cccc1Cl [Example 93] | 87% | 97%
CO/N=C(/C(=O)OC)c1ccccc1CO/N=C(\C)C#Cc1ccc(Cl)cc1C(F)(F)F [Example 94] | 53% | 47%
CO/N=C(/C(=O)OC)c1ccccc1CO/N=C(\C)C#Cc1ccc(OCC(F)(F)F)cc1 [Example 98] | 73% | 93%
CNC(=O)/C(=N/OC)c1ccccc1CO/N=C(\C)C#Cc1ccc(Cl)cc1C(F)(F)F [Example 99] | 0% | 0%
CO/N=C(/C(=O)OC)c1ccccc1CO/N=C(\C)C#Cc1ccc(Oc2ccc(F)cc2)cc1 [Example 100] | 77% | 77%
CNC(=O)/C(=N/OC)c1ccccc1CO/N=C(\C)C#Cc1cccc2c1OC(F)(F)O2 [Example 101] | 4% | 2%
